Data as given in patent publication US20030129189A1, “Tumor necrosis factor-gamma” (priority 1994, published 2003).

Key:
[1] = tested on: bFGF-induced corneal neovascularization; test: Corneal angiogenic assay; type: in vivo, rat
Description: Basic FGF (“bFGF”) has been tested in this corneal angiogenic assay in various research laboratories for a variety of purposes. It has been shown that bFGF can induce significant angiogenesis in corneas (e.g., in rabbits, rats and mice). Based on the previous studies, bFGF was used in our study of TNF-gamma as an angiogenic factor to induce the growth of blood vessels in rat corneas.
An incision, 1-1.5 mm in length, is made in the center of the cornea with a microsurgery scalpel blade.
Starting at the incision, a micropocket is created between the collagenous layers of the corneal stroma with a Castroviego cyclodialysis spatula. This pocket extends to a point 1-2 mm from the capillary bed at the corneal-scleral limbus.
bFGF, which is incorporated 1:1 into non-inflammatory Hydron polymer (available from Interferon Sciences, New Brunswick, N.J.), is implanted into the pocket.
Five or seven days after corneal implantation, corneal blood perfusion with colloidal carbon is performed. Corneas are then harvested, fixed, flattened, mounted and photographed for morphology.
An image analysis system (IPLab) is used to quantify the corneal angiogenesis. The corneal surface area, which is covered by the new blood vessels, is quantified and used in our current study. After corneal implantation surgery, TNF-gamma, angiostatin or PBS in a volume of 25 microliters was injected into the conjunctival region adjacent to the implantation site. Based on molarities of TNF-gamma and angiostatin, 10 micrograms of TNF-gamma or 5 micrograms of angiostatin were given respectively four times, once a day, during the first four days post-surgery. TNF-gamma and angiostatin were prepared in PBS.
bFGF was used to induce neovascularization of the cornea from preexisting pericorneal limbal vessels in two different versions of the assay. First, corneas were surgically implanted with hydrogel plugs containing bFGF. […] In a separate study using an alternate version of this assay, both bFGF and treatment protein were co-administered on a nitrocellulose filter disk implanted within the rat corneal stroma. […] In both assays, the surface area of the angiogenic response was quantitated from digital images of treated corneas five days following implantation.

NF-kappaB in U937 cells = test: NF-kappaB-SEAP reporter assay; type: cell-based; conditions: 72 hr
Protocol: [Bovine pulmonary artery endothelial cells were incubated with various concentrations of TNF-gamma for 48 hours. The apoptosis was assessed by nuclear staining with Hoechst 33342 fluorescence dye (10 mg/ml).] […] [U937 cells were transfected using lipofectamine (following manufacturer's instruction) with 0.2 mg of reporter plasmid (NF-kappaB-SEAP). The transfected U937 cells were collected and added to the 96-well plate ([…]/well) with various concentrated of TNF-gamma. After Incubation at 37° C. for 72 hr, the NF-kappaB activity was measured with luminometer at absorbance of 450 nm.]
Consistent with the Northern blot analysis, peripheral blood mononuclear cells (PBMC) and human umbilical vein endothelial cells (HUVEC) express TNF-gamma on the cell surface by immunostaining with antibody to TNF-gamma. […] The cells were incubated for 30 min at 40° C. with antibody (10 mg/ml ) to TNF-gamma to detected expression of TNF-gamma on cell surface, with DR3-Fc or LTbR-Fc (10 mg/ml) for receptor and ligand binding in the binding buffer (HBSS containing 10% BSA, 20 mM HEPES, pH 7.2, 0.02% NaN3). […] Fluorescence was analyzed by a FACscan flow cytometer (Becton Dickinson, Mountain View, Calif.).] […] After incubation at 37° C. for 72 hr, the NF-kB activity was measured with luminometer at absorbance of 450 nm.] […]

WEHI 164 cells = test: Measurement of apoptosis (nucleosome ELISA); type: cell-based, mouse; conditions: increasing amounts (FIG. 12)
Protocol: In a first incubation step, anti-histone antibody was fixed adsorptively on the wall of a microtiter plate module. Subsequently, non-specific binding sites on the wall were saturated by treatment with incubation buffer (e.g., blocking solution). During the second incubation step, the nucleosomes contained in the WEHI 164 cell sample treated with the TNF-alpha, TNF-beta or bacterially-produced TNF-gamma were bound via their histone components to the immobilized anti-histone antibody. In the third incubation step, anti-DNA-peroxidase (POD) reacted with the DNA component of the nucleosomes. After removal of all unbound peroxidase conjugate by a washing step, the amount of peroxidase retained in the immunocomplex was determined spectrophotometrically using the substrate ABTS (2,2′-azino-di-[3-ethylbenzthiazoline sulfonate]). Anti-histone antibody reacted with the histones H1, H2A, H2B, H3, and H4 from the sample. Anti-DNA POD antibody bound to single- and double-stranded DNA. Therefore, the ELISA allowed the detection of mono- and oligonucleosomes and may be applied to measure apoptotic cell death. The level of cell death was measured by the amount of cytoplasmic histone-associated DNA fragments which was indicated by the ratio of the absorbances observed at 405 and 490 nm (A405/A490). […]

TNF-gamma: new member of the tumor necrosis factor family; the term refers to TNF-gamma-alpha and/or TNF-gamma-beta
angiogenic process in bFGF-implanted corneas ([1]; bFGF (300 ng) implant, conjunctival injection once a day for four days, 10 micrograms TNF-gamma or 5 micrograms angiostatin, seven days after surgery, vs PBS): significantly slowed down the angiogenic process
vessel growth in PBS-implanted corneas ([1]; multiple conjunctival injections): no obvious vessel growth
NF-kappaB activation (NF-kappaB in U937 cells): induces nuclear factor-kappaB (NF-kappaB)
apoptosis (cytoplasmic histone-associated DNA fragments, A405/A490) (WEHI 164 cells): increasingly high levels of apoptosis
